{
  "source": "patent EP0970046B1",
  "about": "“N-HYDROXY-2-(ALKYL, ARYL, OR HETEROARYL SULFANYL, SULFINYL OR SULFONYL)-3-SUBSTITUTED ALKYL, ARYL OR HETEROARYLAMIDES AS MATRIX METALLOPROTEINASE INHIBITORS” (Wyeth Holdings Corporation, priority 1997, dated 1998)",
  "key": {"[1]": {"molecular_target": "T1, TACE (Homo sapiens, UniProt P78536)", "T1 construct": "purchased Immunex", "T1 sequence (P78536 215-824)": "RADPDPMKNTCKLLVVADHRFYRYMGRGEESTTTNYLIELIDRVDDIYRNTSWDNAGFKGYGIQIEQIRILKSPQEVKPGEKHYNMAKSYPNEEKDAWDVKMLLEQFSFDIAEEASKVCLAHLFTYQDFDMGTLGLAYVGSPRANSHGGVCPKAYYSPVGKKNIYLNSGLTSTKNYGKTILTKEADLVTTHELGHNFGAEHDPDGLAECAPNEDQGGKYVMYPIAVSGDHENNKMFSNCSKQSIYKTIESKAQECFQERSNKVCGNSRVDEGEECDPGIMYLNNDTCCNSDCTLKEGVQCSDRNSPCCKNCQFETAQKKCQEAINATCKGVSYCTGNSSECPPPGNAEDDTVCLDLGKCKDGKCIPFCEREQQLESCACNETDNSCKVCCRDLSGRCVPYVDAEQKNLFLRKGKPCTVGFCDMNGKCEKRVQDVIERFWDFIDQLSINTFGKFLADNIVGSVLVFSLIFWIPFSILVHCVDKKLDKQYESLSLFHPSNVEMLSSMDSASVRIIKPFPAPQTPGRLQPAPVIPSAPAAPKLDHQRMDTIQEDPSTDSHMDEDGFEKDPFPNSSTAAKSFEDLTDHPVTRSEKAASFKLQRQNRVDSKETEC", "experiment": "Procedure for Measuring TACE Inhibition", "type": "biochemical", "conditions": "1 µM; for inhibition at 1 µM: read-out: TACE % inhibition at 1 µM", "description": "Using 96-well black microtiter plates, each well receives a solution composed of 10 µL TACE (Immunex, final concentration 1µg/mL), 70µL Tris buffer, pH 7.4 containing 10% glycerol (final concentration 10 mM), and 10 µL of test compound solution in DMSO (final concentration 1µM, DMSO concentration <1%) and incubated for 10 minutes at room temperature. The reaction is initiated by addition of a fluorescent peptidyl substrate (final concentration 100 µM) to each well and then shaking on a shaker for 5 sec. The reaction is read (excitation 340 nm, emission 420 nm) for 10 min. and the increase in fluorescence over time is plotted as a linear line. The slope of the line is calculated and represents the reaction rate. The linearity of the reaction rate is confirmed (r^2 >0.85). The mean (x±sem) of the control rate is calculated and compared for statistical significance (p<0.05) with drug-treated rates using Dunnett's multiple comparison test."}, "[2]": {"molecular_target": "MMP 13 (Homo sapiens, UniProt P45452)", "experiment": "MMP 13 inhibition (HTS; method not described)", "type": "biochemical", "conditions": "HTS; for inhibition at 0.2 µM: read-out: MMP 13 % inhibition at 0.2 µM (HTS); for inhibition at 0.036 µM: read-out: MMP 13 % inhibition at 36 nM (HTS); for inhibition at 0.036 µM / MMP 13 % inhibition at 36 nM (HTS): 36 nM"}},
  "note": "Read-outs that look alike come from different tables or passages of the source.",
  "data": [
    {"compound": "CC(C)C(C(=O)NO)S(=O)(=O)CCc1ccccc1", "note": "(stereo not drawn) [Example 118, N-Hydroxy-3-methyl-2-phenethylsulfonyl-butyramide]", "values": [
      {"measurement": "inhibition at 1 µM", "setting": "[1]; Examples 110-168", "result": 16.7, "unit": "%"},
      {"measurement": "inhibition at 0.2 µM", "setting": "[2]; 0.2 µM", "result": 24, "unit": "%"}
    ]},
    {"compound": "CCCCCCC(Sc1nccs1)C(=O)NO", "note": "(stereo not drawn) [Example 186, 2-(Thiazol-2-ylsulfanyl)-octanoic acid hydroxyamide]", "values": [
      {"measurement": "inhibition at 1 µM", "setting": "[1]; Examples 169-240", "result": 19.5, "unit": "%"},
      {"measurement": "inhibition at 0.036 µM", "setting": "[2]", "result": -14, "unit": "%"}
    ]},
    {"compound": "CCCCCCC(C(=O)NO)S(=O)(=O)c1nc(-c2ccccc2)cs1", "note": "(stereo not drawn) [Example 182, 2-(4-Phenyl-thiazole-2-sulfonyl)-octanoic acid hydroxyamide]", "values": [
      {"measurement": "inhibition at 1 µM", "setting": "[1]; Examples 169-240", "result": 28.6, "unit": "%"},
      {"measurement": "inhibition at 0.036 µM", "setting": "[2]", "result": -9, "unit": "%"}
    ]},
    {"compound": "COc1ccc(SC(C)C(=O)NO)cc1", "note": "(stereo not drawn) [Example 111, N-Hydroxy-2-(4-methoxy-benzenesulfanyl)-propionamide]", "values": [
      {"measurement": "TACE % inhibition at 1 µM", "setting": "[1]; Examples 110-168", "result": 40.4, "unit": "%"},
      {"measurement": "MMP 13 % inhibition at 0.2 µM (HTS)", "setting": "[2]; 0.2 µM", "result": 10, "unit": "%"}
    ]},
    {"compound": "CCCCCCC(C(=O)NO)[S+]([O-])CCc1cnccn1", "note": "(stereo not drawn) [Example 180, 2-(2-Pyrazin-2-yl-ethylsulfinyl)-octanoic acid hydroxyamide]", "values": [
      {"measurement": "inhibition at 1 µM", "setting": "[1]; Examples 169-240", "result": 34.4, "unit": "%"},
      {"measurement": "inhibition at 0.036 µM", "setting": "[2]", "result": 14, "unit": "%"}
    ]},
    {"compound": "CC(C)CCS(=O)(=O)C(C)C(=O)NO", "note": "(stereo not drawn) [Example 113, N-Hydroxy-2-(3-methyl-butane-1-sulfonyl)-propionamide]", "values": [
      {"measurement": "inhibition at 1 µM", "setting": "[1]; Examples 110-168", "result": 13.1, "unit": "%"},
      {"measurement": "inhibition at 0.2 µM", "setting": "[2]; 0.2 µM", "result": 0, "unit": "%"}
    ]},
    {"compound": "CCCCCCC(Sc1nc(-c2ccccc2)cs1)C(=O)NO", "note": "(stereo not drawn) [Example 172, 2-(4-Phenyl-thiazole-2-sulfanyl)-octanoic acid hydroxyamide]", "values": [
      {"measurement": "TACE % inhibition at 1 µM", "setting": "[1]; Examples 169-240", "result": 29.4, "unit": "%"},
      {"measurement": "MMP 13 % inhibition at 36 nM (HTS)", "setting": "[2]", "result": 34, "unit": "%"}
    ]},
    {"compound": "O=C(NO)C(COCc1ccccc1)S(=O)(=O)Cc1ccccc1Cl", "note": "(stereo not drawn) [Example 151, 3-Benzyloxy-N-hydroxy-2-(2-chloro-benzylsulfonyl)-propionamide]", "values": [
      {"measurement": "inhibition at 1 µM", "setting": "[1]; Examples 110-168", "result": 5.93, "unit": "%"},
      {"measurement": "inhibition at 0.2 µM", "setting": "[2]; 0.2 µM", "result": 6, "unit": "%"}
    ]},
    {"compound": "CCCCCCC(Sc1ccc(NC)cc1)C(=O)NO", "note": "(stereo not drawn) [Example 229, 2-(4-Methylamino-phenylsulfanyl)-octanoic acid hydroxyamide]", "values": [
      {"measurement": "inhibition at 1 µM", "setting": "[1]; Examples 169-240", "result": 34.4, "unit": "%"},
      {"measurement": "inhibition at 0.036 µM", "setting": "[2]", "result": 29, "unit": "%"}
    ]},
    {"compound": "O=C(NO)C(Cc1ccccc1)S(=O)(=O)c1ccc(O)cc1", "note": "(stereo not drawn) [Example 127, 2-(4-Hydroxybenzenesulfonyl)-N-hydroxy-3-phenyl-propionamide]", "values": [
      {"measurement": "inhibition at 1 µM", "setting": "[1]; Examples 110-168", "result": 29.2, "unit": "%"},
      {"measurement": "inhibition at 0.2 µM", "setting": "[2]; 0.2 µM", "result": 47, "unit": "%"}
    ]},
    {"compound": "CCCCCCC(C(=O)NO)S(=O)(=O)c1ncc[nH]1", "note": "(stereo not drawn) [Example 194, 2-(1H-Imidazole-2-sulfonyl)-octanoic acid hydroxyamide]", "values": [
      {"measurement": "inhibition at 1 µM", "setting": "[1]; Examples 169-240", "result": 5.4, "unit": "%"},
      {"measurement": "inhibition at 0.036 µM", "setting": "[2]", "result": -17, "unit": "%"}
    ]},
    {"compound": "Benzo[1,2,5]thiadiazole-4-sulfonic acid 4-(1-hydroxycarbamoyl-heptylsulfonyl)-hydroxyamide [Example 240]", "values": [
      {"measurement": "TACE % inhibition at 1 µM", "setting": "[1]; Examples 169-240", "result": 40.3, "unit": "%"},
      {"measurement": "MMP 13 % inhibition at 36 nM (HTS)", "setting": "[2]", "result": 48, "unit": "%"}
    ]},
    {"compound": "CCCCCCC(C(=O)NO)S(=O)(=O)c1cc(Cl)ccc1Cl", "note": "(stereo not drawn) [Example 161, 2-(2,5-Dichlorobenzenesulfonyl)-octanoic acid hydroxyamide]", "values": [
      {"measurement": "inhibition at 1 µM", "setting": "[1]; Examples 110-168", "result": 12.7, "unit": "%"},
      {"measurement": "inhibition at 0.2 µM", "setting": "[2]; 0.2 µM", "result": 0, "unit": "%"}
    ]},
    {"compound": "5-Chloro-1,3-dimethyl-1H-pyrazole-4-sulfonic acid 4-(1-hydroxycarbamoyl-heptylsulfinyl)-hydroxyamide [Example 235]", "values": [
      {"measurement": "TACE % inhibition at 1 µM", "setting": "[1]; Examples 169-240", "result": 48.3, "unit": "%"},
      {"measurement": "MMP 13 % inhibition at 36 nM (HTS)", "setting": "[2]", "result": 59, "unit": "%"}
    ]},
    {"compound": "CC(C)C(C(=O)NO)S(=O)(=O)c1ccc2ccccc2c1", "note": "(stereo not drawn) [Example 116, N-Hydroxy-3-methyl-2-(naphthalen-2-ylsulfonyl)-butyramide]", "values": [
      {"measurement": "inhibition at 1 µM", "setting": "[1]; Examples 110-168", "result": 9.1, "unit": "%"},
      {"measurement": "inhibition at 0.2 µM", "setting": "[2]; 0.2 µM", "result": 0, "unit": "%"}
    ]},
    {"compound": "2,5-Dichloro-thiophene-3-sulfonic acid 4-(1-hydroxycarbamoyl-heptylsulfanyl)-hydroxyamide [Example 233]", "values": [
      {"measurement": "TACE % inhibition at 1 µM", "setting": "[1]; Examples 169-240", "result": 19.8, "unit": "%"},
      {"measurement": "MMP 13 % inhibition at 36 nM (HTS)", "setting": "[2]", "result": 33, "unit": "%"}
    ]},
    {"compound": "CCCCCCC(Sc1ccc(N2CCNCC2)cc1)C(=O)NO", "note": "(stereo not drawn) [Example 231, 2-(4-Piperazin-1-yl-phenylsulfanyl)-octanoic acid hydroxyamide]", "values": [
      {"measurement": "inhibition at 1 µM", "setting": "[1]; Examples 169-240", "result": 41.6, "unit": "%"},
      {"measurement": "inhibition at 0.036 µM", "setting": "[2]", "result": 23, "unit": "%"}
    ]},
    {"compound": "O=C(NO)C(COCc1ccccc1)SCc1ccccc1Cl", "note": "(stereo not drawn) [Example 149, 3-Benzyloxy-N-hydroxy-2-(2-chloro-benzylsulfanyl)-propionamide]", "values": [
      {"measurement": "inhibition at 1 µM", "setting": "[1]; Examples 110-168", "result": 4.41, "unit": "%"},
      {"measurement": "inhibition at 0.2 µM", "setting": "[2]; 0.2 µM", "result": 13, "unit": "%"}
    ]}
  ]
}
